According to ChEMBL document CHEMBL4196166 (J Med Chem, 2018):

These compounds were tested against Urokinase-type plasminogen activator (Homo sapiens, UniProt P00749) (assay: Inhibition of human kidney uPA using Z-Gly-Gly-Arg-AMC as substrate measured over 15 mins by fluorescence assay).

SMILES | Ki [nM]
COc1ccc(-c2nc(C(=O)NC(=N)N)c(N)nc2N2CCCCCC2)c(OC)c1 | 2200
N=C(N)NC(=O)c1nc(-c2cnn(CCN3CCOCC3)c2)c(N2CCCCCC2)nc1N | 658
COc1cc(-c2nc(C(=O)NC(=N)N)c(N)nc2N2CCCCCC2)c(OC)nn1 | 315
N=C(N)NC(=O)c1nc(-c2ccco2)c(N2CCCCCC2)nc1N | 156
N=C(N)NC(=O)c1nc(-c2ccsc2)c(N2CCCCCC2)nc1N | 1030
N=C(N)NC(=O)c1nc(-c2cnc(N)nc2)c(N2CCCCCC2)nc1N | 21
COc1ccc(-c2nc(C(=O)NC(=N)N)c(N)nc2N2CCCCCC2)c(OC)n1 | 884
N=C(N)NC(=O)c1nc(-c2ccc3c(c2)OCO3)c(N2CCCCCC2)nc1N | 934
CNc1ncc(-c2nc(C(=O)NC(=N)N)c(N)nc2N2CCCCCC2)cn1 | 43
N=C(N)NC(=O)c1nc(-c2cccs2)c(N2CCCCCC2)nc1N | 2420
CC(C)Nc1ncc(-c2nc(C(=O)NC(=N)N)c(N)nc2N2CCCCCC2)cn1 | 42
COc1ncc(-c2nc(C(=O)NC(=N)N)c(N)nc2N2CCCCCC2)c(OC)n1 | 42
N=C(N)NC(=O)c1nc(-c2ccccc2)c(N2CCCCCC2)nc1N | 5020
N=C(N)NC(=O)c1nc(-c2ccoc2)c(N2CCCCCC2)nc1N | 166
Cn1cc(-c2nc(C(=O)NC(=N)N)c(N)nc2N2CCCCCC2)cn1 | 508
CSc1ccc(-c2nc(C(=O)NC(=N)N)c(N)nc2N2CCCCCC2)cc1 | 16400
N=C(N)NC(=O)c1nc(-c2cncc3ccccc23)c(N2CCCCCC2)nc1N | 3540
N=C(N)NC(=O)c1nc(Nc2ncccn2)c(N2CCCCCC2)nc1N | 228
COc1cc(OC)cc(-c2nc(C(=O)NC(=N)N)c(N)nc2N2CCCCCC2)c1 | 1320
N=C(N)NC(=O)c1nc(-c2cc3ccccc3s2)c(N2CCCCCC2)nc1N | 3310
N=C(N)NC(=O)c1nc(-c2cccnc2F)c(N2CCCCCC2)nc1N | 1780
N=C(N)NC(=O)c1nc(-c2cnc(NCCO)nc2)c(N2CCCCCC2)nc1N | 41
